{"source": "patent US12622965B2", "about": "“Therapeutical tools and methods using temperature-sensitive receptors for treating blindness” (FRIEDRICH MIESCHER INSTITUTE FOR BIOMEDICAL RESEARCH, priority 2020, dated 2026)", "key": {"[1]": {"test_system": "adult human ex vivo retinal explants", "test": "AAV transduction of adult human ex vivo retinal explants, quantified by immunofluorescence", "type": "cell-based", "conditions": "CAG promoter, mean±s.d", "protocol": "Finally, the inventors provided NIR sensitivity to in a blind human retina. They targeted rTRPV1 to adult human ex vivo retinal explants, kept alive in culture for eight weeks post mortem. Cultured retinas lose light sensitivity after 16 hours. Using a CAG promoter, a density of 2477±889 rTRPV1 positive photoreceptors was achieved per mm^2 of explant tissue (mean±s.d). 94.5±4.2% of rTRPV1 positive cells were photoreceptors (n=2583 rTRPV1 positive cells mm^−2, n=2477 rTRPV1 positive photoreceptors mm^−2, mean±s.d).\nHuman retinal tissue was obtained after corneal tissue harvest from adult multi-organ donors with no reported history of eye disease, n=2 eyes from n=2 donors. […] Light responses were recorded from samples 8 weeks post-mortem. […]\nA Zeiss LSM 700 laser scanning confocal microscope was used to acquire images of antibody stained cells and tissues with an EC Plan-Neofluar 40×/1.30 oil M27 objective at up to 4 excitation laser lines according to secondary antibody specification. Expression was assessed from 1024×1024 pixel images in a z-stack with 0.75 μm steps. […] AAV transduction was quantified from retinal wholemounts. […] Quantification was performed separately for outer nuclear layer, inner nuclear layer and ganglion cell layer."}, "[2]": {"test_system": "HEK cells expressing TRPV1.459-6x-His, TRPV1.465-6x-His or untagged TRPV1", "test": "whole cell voltage clamp in HEK cells expressing TRPV1 variants, activated by capsaicin", "type": "cell-based", "conditions": "TRPV1 agonist capsaicin 2.5 μM bath applied; voltage clamp −60 mV; mean±s.e.m", "from_the_text": "First, they developed a system based on rat TRPV1 channels and gold nanorods with absorption maxima at 915 nm. 915 nm was selected to ensure low water absorption. […] To measure if tagged channels are functional, they performed whole cell voltage clamp in HEK cells expressing TRPV1.459-6x-His, TRPV1.465-6x-His or untagged TRPV1 while activating the channels by TRPV1 agonist capsaicin. The size of evoked currents were similar between TRPV1.465-6x-His and TRPV1 (Mann-Whitney U test, P=0.8551; TRPV1.465-6x-His, 1633±164 pA, […] 15 cells; TRPV1, 1766±276 pA, n=14 cells; mean±s.e.m), but less in TRPV1.459-6x-His (Mann-Whitney U test, P=0.0207; TRPV1.459-6x-His, 976±118 pA, n=19 cells; mean±s.e.m). Therefore, they used TRPV1.465-6x-His (rTRPV1) in subsequent experiments.\nFor HEK293T cell experiments, cells were maintained at 37° C. on poly-D-lysine/laminin coated coverslips (GG-12-Laminin, Neuvitro) in DMEM supplemented with 10% fetal bovine serum. Cells were transfected with plasmids containing TRP variants using branched PEI. Cells were perfused in oxygenated Ringer's medium containing 110 mM NaCl, 2.5 mM KCl, 1 mM CaCl2, 1.6 mM MgCl2, 10 mM D-glucose and 22 mM NaHCO3 at ˜36° C. for the duration of the experiment. […] Data was analyzed offline using MATLAB (MathWorks)."}}}
{"substance": "TRPV1.465-6x-His: rat TRPV1 channel with 6x-His epitope tag inserted in the first extracellular loop after amino acid 465; delivered by AAV", "values": [{"measurement": "density of rTRPV1 positive photoreceptors", "setting": "[1]; explant tissue", "value": "2477±889", "unit": "per mm^2"}, {"measurement": "rTRPV1 positive cells that were photoreceptors", "setting": "[1]", "value": "94.5±4.2", "unit": "%"}, {"measurement": "size of evoked currents", "setting": "[2]", "value": "1633±164", "unit": "pA"}]}
